# Test results as given in US7795378B2, “Peptide compositions for treatment of sexual dysfunction” (Palatin Technologies, Inc., priority 2002, dated 2010).
# Where a SMILES comes first, the peptide text is derived from it. [ ]: non-standard residue; d: D form. The star is where a group is joined. dPhe(4-Cl) = N[C@H](Cc1ccc(Cl)cc1)C(=O)O; Ahp = NCCCCCCC(=O)O; Bn = c1ccc(C*)cc1
# Key:
# [1] = biological target: T1, MC1-R (B16-F1 mouse melanoma cells) (Mus musculus, UniProt Q01727); assay: Competitive inhibition binding assay with 125I-NDP-MSH, MC1 receptor; conditions: 10 μM peptide, 0 assigned when raw inhibition between −10% and 10%, read-out: % Inhibition at 10 μM concentration at MC1-Receptor
# T1 construct: B-16 mouse melanoma cells (containing MC1-R); endogenous in cells; host or cells: B16-F1 mouse melanoma cells (membranes)
# Protocol: (§1) Competitive inhibition binding assay was conducted using membranes prepared from hMC3-R, hMC4-R, hMC5-R, and B-16 mouse melanoma cells (containing MC1-R) using 0.4 nM ^125I-NDP-MSH (0.2 nM for MCL-R) (New England Nuclear, Boston, Mass., USA) in 50 mM HEPES buffer containing 1 mM MgCl2, 2 mM CaCl2, and 5 mM KCl, at pH 7.2. The assay tube also contained a chosen concentration of the peptides of this invention, for determining inhibition of the binding of ^125I-NDP-MSH to its receptor. Non-specific binding was measured by complete inhibition of binding of ^125I-NDP-MSH in the assay in the presence of 1 μM α-MSH. Incubation was for 90 minutes at 37° C., after which the assay mixture was filtered and the membranes washed three times with ice cold buffer. The filter was dried and counted in a gamma counter for remaining radioactivity bound to the membranes. 100% specific binding was defined as the difference in radioactivity (cpm) bound to cell membranes in the absence and presence of 1 μM α-MSH. The cpm obtained in the presence of peptides of this invention were normalized with respect to 100% specific binding to determine the percent inhibition of ^125I-NDP-MSH binding. Each assay was conducted in triplicate.
# (§2) The binding of the peptides of Examples 1 to 13, inclusive, to melanocortin receptors was evaluated, with results shown on Table 1. Relative binding was determined by competitive inhibition using an α-MSH analog, iodinated NDP-MSH. B16-Fl mouse melanoma cells were used as the source of MC1 receptors and HEK 293 cells, transfected with human melanocortin receptor sequences, were used as the source of MC3, MC4 and MC5 receptors. A standard competitive binding assay protocol as described above was followed, using ^125I-NDP-MSH as the radioligand. A “0” percent inhibition was assigned when the raw percent inhibition, as an average of at least triplicate measures, was between −10% and 10%; in the majority of instances, the raw percent inhibition was between −10% and 0% inhibition.
# hMC3-R = biological target: T2, hMC3-R (Homo sapiens, UniProt P41968); assay: Competitive inhibition binding assay with 125I-NDP-MSH, MC3 receptor; conditions: 10 μM peptide, 0 assigned when raw inhibition between −10% and 10%, read-out: % Inhibition at 10 μM concentration at MC3-Receptor
# T2 construct: expressed in transfected cells; host or cells: HEK 293 cells (membranes)
# Protocol: as §1, §2
# hMC4-R = biological target: T3, hMC4-R (Homo sapiens, UniProt P32245); assay: Competitive inhibition binding assay with 125I-NDP-MSH, MC4 receptor; conditions: 10 μM peptide, 0 assigned when raw inhibition between −10% and 10%, read-out: % Inhibition at 10 μM concentration at MC4-Receptor
# T3 construct: expressed in transfected cells
# Protocol: as §1, §2
# hMC5-R = biological target: T4, hMC5-R (Homo sapiens, UniProt P33032); assay: Competitive inhibition binding assay with 125I-NDP-MSH, MC5 receptor; conditions: 10 μM peptide, 0 assigned when raw inhibition between −10% and 10%, read-out: % Inhibition at 10 μM concentration at MC5-Receptor
# T4 construct: expressed in transfected cells; host or cells: HEK 293 cells (membranes)
# Protocol: as §1, §2
# male Sprague-Dawley rats = assay: Induction of penile erections in male rats; assay type: in vivo, rat
# Protocol: The ability of the peptides of Examples 1 to 13 to induce penile erection in male rats was evaluated. Male Sprague-Dawley rats weighing 200-250 g were kept on a 12 hour on/off light cycle with food and water ad libitum. All behavioral studies were performed between 10 a.m. and 5 p.m. Groups of 4-8 rats were treated with peptides at a variety of doses via intravenous administration. Immediately after administration, rats were placed into individual polystyrene cages (27 cm long, 16 cm wide, and 25 cm high) for behavioral observation.
# The efficacious dose of NH2—(CH2)6CO-Ser(Bzl)-D-Phe(4-Cl)-Arg, made as in Example 1 above, to induce penile erection in Sprague Dawley rats by intravenous dosing and oral administration was determined. […] NH2—(CH2)6CO-Ser(Bzl)-D-Phe(4-Cl)-Arg was efficacious at doses as low as 0.1 to 1 μg/kg of body weight when administered by oral means, and at doses lower than 0.001 μg/kg of body weight when administered by intravenous means.
# The efficacious dose of NH2—(CH2)6—CO-Ser(Bzl)-D-Phe(4-Cl)-Arg(NO2), made as in Example 5 above, to induce penile erection in Sprague Dawley rats by intravenous dosing was determined. […] It was determined that NH2—(CH2)6—CO-Ser(Bzl)-D-Phe(4-Cl)-Arg(NO2) was efficacious at doses as low as 0.001 to 10 μg/kg of body weight when administered by intravenous means, with efficacy determined by induction of penile erection in 100% of animals. The optimal dose response was at 1 μg/kg of body weight. FIG. 1 depicts the dose response profile, with the error bars depicting standard deviation where n (the number of animals) is between 8 and 19, depending on the dose point.
# The efficacious dose of NH2—(CH2)6—CO-Ser(Bzl)-D-Phe(4-Cl)-Arg(NO2), made as in Example 5 above, to induce penile erection in Sprague Dawley rats by intranasal administration using a micropipetor to deliver 25 μL of solution into one nostril was determined. […] It was determined that NH2—(CH2)6—CO-Ser(Bzl)-D-Phe(4-Cl)-Arg(NO2) was efficacious at doses between 0.01 μg/kg and 100 μg/kg of body weight when administered by intranasal means. The peak dose response was at an intranasal dose of 0.1 μg/kg of body weight.
# male rats = assay: Induced penile erections after pre-administration of MC4-R antagonist SHU9119; assay type: in vivo, rat; conditions: SHU9119 approximately 5 minutes before peptide
# Description: It is known that MC4-R antagonists inhibit the erectile activity of MC4-R agonists in a dose dependent manner. Such antagonists include SHU9119, a nonselective melanocortin antagonist of the formula Ac-Nle-cyc/o(-Asp-His-D-Nal(2′)-Arg-Trp-Lys)-NH2 (Hruby V. J., Lu D., Sharma S. D., et al. Cyclic lactam alpha-melanotropin analogues of Ac-Nle^4-cyclo[Asp^5, D-Phe^7, Lys^10]-NH2 with bulky aromatic amino acids at position 7 show high antagonist potency and selectivity at specific melanocortin receptors. J Med Chem 38:3454-3461 (1995)). Antagonists such as SHU9119 are known to inhibit MT-II and other known melanocortin receptor-specific agonists that induce erectile activity. SHU9119 was administered to male rats approximately 5 minutes before administration of either NH2—(CH2)6CO-Ser(Bzl)-D-Phe(4-Cl)-Arg or NH2—(CH2)6CO-Ser(Bzl)-D-Phe(4-Cl)-Arg-Trp-NH2, with Ac-Nle-cyc/o(Asp-His-D-Phe-Arg-Trp-Lys)-OH, a known MC4-R agonist, as a positive control.
# [2] = tested on: panel of known central and peripheral receptors and neurotransmitters, ion channels and enzymes systems; assay: Receptor specificity screening panel; assay type: binding; conditions: 10 μM concentration
# Protocol: The peptide NH2—(CH2)6CO-Ser(Bzl)-D-Phe(4-Cl)-Arg was tested at 10 μM concentration for binding to a panel of known central and peripheral receptors and neurotransmitters, including steroid receptors, neurotransmitter receptors, brain/gut peptide receptors, growth factor/hormone receptors and other receptors, and for interaction with a panel of known ion channels and enzymes systems.
# T2 sequence (P41968 whole entry): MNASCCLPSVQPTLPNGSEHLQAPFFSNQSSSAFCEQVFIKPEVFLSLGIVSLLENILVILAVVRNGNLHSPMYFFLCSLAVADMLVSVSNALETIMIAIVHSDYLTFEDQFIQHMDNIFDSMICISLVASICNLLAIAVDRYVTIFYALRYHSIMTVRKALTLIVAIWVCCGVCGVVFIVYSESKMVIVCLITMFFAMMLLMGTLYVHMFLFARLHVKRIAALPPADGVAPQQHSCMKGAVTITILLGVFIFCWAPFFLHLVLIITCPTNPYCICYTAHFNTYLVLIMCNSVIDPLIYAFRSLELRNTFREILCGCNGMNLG
# T3 sequence (P32245 whole entry): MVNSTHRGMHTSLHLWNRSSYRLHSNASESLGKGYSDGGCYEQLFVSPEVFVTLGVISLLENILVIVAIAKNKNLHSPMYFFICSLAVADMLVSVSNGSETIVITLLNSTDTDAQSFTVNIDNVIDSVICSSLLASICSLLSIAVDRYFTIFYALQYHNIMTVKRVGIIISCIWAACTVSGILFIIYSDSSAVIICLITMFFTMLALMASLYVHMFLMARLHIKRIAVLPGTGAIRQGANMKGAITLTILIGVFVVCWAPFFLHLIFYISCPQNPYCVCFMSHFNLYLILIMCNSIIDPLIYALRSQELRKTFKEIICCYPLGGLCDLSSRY
# T4 sequence (P33032 whole entry): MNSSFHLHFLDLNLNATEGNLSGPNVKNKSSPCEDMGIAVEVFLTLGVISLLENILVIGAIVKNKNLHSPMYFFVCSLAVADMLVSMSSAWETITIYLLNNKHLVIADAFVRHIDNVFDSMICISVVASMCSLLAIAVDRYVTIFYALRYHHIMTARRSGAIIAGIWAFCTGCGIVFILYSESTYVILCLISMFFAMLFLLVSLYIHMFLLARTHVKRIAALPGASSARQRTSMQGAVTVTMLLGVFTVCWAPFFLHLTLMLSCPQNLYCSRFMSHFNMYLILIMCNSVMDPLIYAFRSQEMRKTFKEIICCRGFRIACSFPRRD
# T1 sequence (Q01727 whole entry): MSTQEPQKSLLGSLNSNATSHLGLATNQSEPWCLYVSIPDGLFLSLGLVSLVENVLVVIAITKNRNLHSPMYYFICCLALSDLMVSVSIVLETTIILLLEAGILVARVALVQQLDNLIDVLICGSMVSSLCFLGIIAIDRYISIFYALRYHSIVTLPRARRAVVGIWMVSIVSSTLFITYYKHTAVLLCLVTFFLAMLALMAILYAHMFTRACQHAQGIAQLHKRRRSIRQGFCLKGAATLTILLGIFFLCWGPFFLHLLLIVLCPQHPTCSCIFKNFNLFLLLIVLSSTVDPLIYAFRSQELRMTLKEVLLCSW
compound,measurement,setting,value
"N=C(N)NCCC[C@H](NC(=O)[C@@H](Cc1ccc(Cl)cc1)NC(=O)[C@H](COCc1ccccc1)NC(=O)CCCCCCN)C(=O)O [NH2—(CH2)6—CO-Ser(Bzl)-D-Phe(4-Cl)-Arg, NH2—(CH2)6CO-Ser(Bzl)-D-Phe(4-Cl)-Arg] (H-[Ahp]S(Bn)[dPhe(4-Cl)]R-OH)",inhibition at 10 µM,[1],0%
same,inhibition at 10 µM,hMC3-R,0%
same,inhibition at 10 µM,hMC4-R,0%
same,inhibition at 10 µM,hMC5-R,0%
same,"human dose for oral delivery, extrapolated (could be as low as)","male Sprague-Dawley rats; extrapolated from rat to human, oral",1 mg
same,"efficacious dose to induce penile erection, intravenous","male Sprague-Dawley rats; male Sprague Dawley rats, intravenous",lower than 0.001 μg/kg
same,oral dose at which peptide may be biologically active (as low as),"male Sprague-Dawley rats; male rats, oral",250 ng/kg
same,effect of SHU9119 pre-administration on induced erections,male rats,resulted in erections at a rate equivalent to that obtained without pre-administration of SHU9119
same,binding or activity at panel members,[2],No binding or activity
